# Source: the Deep4Chem optical property database
# Test: solvent given as SMILES
smiles,measurement,setting,value
O=C1Cc2cc3c(cc2CCCc2ccc(cc2)CCC3)CC(=O)Cc2ccc(c3nsnc23)C1,absorption maximum,in C1CCCCC1,401 nm
same,absorption maximum,in CC#N,404 nm
same,absorption maximum,in ClC(Cl)Cl,404 nm
CCN(CC)c1ccc(/C=C2\CC/C(=C\c3ccc(N(c4ccccc4)c4ccc(/C=C5\CC/C(=C\c6ccc(N(CC)CC)cc6)C5=C(C#N)C#N)cc4)cc3)C2=C(C#N)C#N)cc1,absorption maximum,in CN(C)C=O,592 nm
COC(=O)[C@@H]1C(=O)Oc2ccccc2[C@H]1c1c[nH]c2ccccc12,absorption maximum,in CS(C)=O,284 nm
CC1=N/C(=C\c2ccc(C#N)c(N(C)C)c2)C(=O)N1C,absorption maximum,in C1CCOC1,368 nm
same,absorption maximum,in CC#N,369 nm
same,absorption maximum,in CCCCCC,362 nm
COc1cc(N(CC(=O)[O-])CC(=O)[O-])c2nc(COc3cc(C)ccc3N(CC(=O)[O-])CC(=O)[O-])ccc2c1,absorption maximum,in O,356 nm
C(=C\c1cc(/C=C/c2ccc(N(c3ccccc3)c3ccccc3)cc2)ncn1)/c1ccc(N(c2ccccc2)c2ccccc2)cc1,absorption maximum,in ClCCl,427 nm
c1ccc(-n2c(-c3ccccc3-n3c4ccccc4c4ccccc43)nc3ccccc32)cc1,absorption maximum,in C1CCOC1,352 nm
F[B-]1(F)N2C=CN=CC2=[N+]2[N+]1=Cc1c(-c3ccccc3)cc(-c3cccs3)n1[B-]2(F)F,absorption maximum,in ClCCl,533 nm
c1ccc(-n2c(-c3ccc(-c4ccc(-c5ccc(-c6nc7c8ccccc8c8ccccc8c7n6-c6ccccc6)cc5)cc4)cc3)nc3ccccc32)cc1,absorption maximum,in C1CCOC1,341 nm
same,absorption maximum,in C1COCCO1,344 nm
same,absorption maximum,in CC#N,337 nm
same,absorption maximum,in CCCCCC,341 nm
same,absorption maximum,in CCCCOCCCC,340 nm
same,absorption maximum,in CCN(CC)CC,341 nm
same,absorption maximum,in CCOC(C)=O,339 nm
same,absorption maximum,in CCOCC,340 nm
same,absorption maximum,in CN(C)C=O,342 nm
same,absorption maximum,in Cc1ccccc1,345 nm
same,absorption maximum,in ClC(Cl)Cl,340 nm
same,absorption maximum,in ClC=C(Cl)Cl,343 nm
same,absorption maximum,in ClCCl,340 nm
c1ccc2c(c1)-c1ccccc1C21c2ccccc2-c2ccncc21,absorption maximum,in CC1CCCO1,307 nm
CCn1c2ccccc2c2cc(-c3cc(-c4ccc5c(c4)c4ccccc4n5CC)nc(-c4ccccc4)n3)ccc21,absorption maximum,in C1CCOC1,364 nm
same,absorption maximum,in CCOC(C)=O,360 nm
same,absorption maximum,in CN(C)C=O,367 nm
same,absorption maximum,in Cc1ccccc1,363 nm
same,absorption maximum,in ClCCl,363 nm
CCCCCCCCCCOc1cc(OCCCCCCCCCC)cc(C2=C3C(/C=C/c4ccc(N(C)C)cc4)=C(C#Cc4ccc(C(C)(C)C)cc4)C(/C=C/c4ccc(N(C)C)cc4)=[N+]3[B-](F)(F)n3c(/C=C/c4ccc(N(C)C)cc4)c(C#Cc4ccc(C(C)(C)C)cc4)c(/C=C/c4ccc(N(C)C)cc4)c32)c1,absorption maximum,in ClC(Cl)Cl,797 nm
CC(C)=NO,absorption maximum,in CCO,193 nm
Clc1nnc(Oc2ccc(N(c3ccccc3)c3ccccc3)cc2)nn1,absorption maximum,in ClCCl,525 nm
O=C(O)C1=C/C(=C/C=[NH+]/c2ccc3c(C(F)(F)F)cc(=O)oc3c2)CC(C(=O)O)N1 (stereo not drawn),absorption maximum,in O,519 nm
CC(C)[Si](C#Cc1cc2c(=S)c3cc(C#C[Si](C(C)C)(C(C)C)C(C)C)cc4c(=S)c5cc(C#C[Si](C(C)C)(C(C)C)C(C)C)cc6c(=S)c(c1)c2n(c34)c65)(C(C)C)C(C)C,absorption maximum,in ClCCl,577 nm
CC(=O)c1nc(-c2ccc(C)cc2)oc1C,absorption maximum,in CC#N,271 nm
same,absorption maximum,in CCCCCC,272 nm
same,absorption maximum,in CCO,271 nm
same,absorption maximum,in CCOC(C)=O,273 nm
same,absorption maximum,in CCOCC,271 nm
same,absorption maximum,in ClCCl,271 nm
CCN(C(C)=O)c1cc2c(cc1C)C(c1ccccc1C(=O)O)=C1CCCC(/C=C/C3=[N+](C)c4ccc5ccccc5c4C3(C)C)=C1O2,absorption maximum,in CCO,678 nm
CN1C(C(=O)Nc2ccccn2)=C(O)c2sccc2S1(=O)=O,absorption maximum,in C1COCCO1,344 nm
same,absorption maximum,in CC#N,355 nm
same,absorption maximum,in CCCCO,350 nm
same,absorption maximum,in CCCO,350 nm
same,absorption maximum,in CCO,351 nm
same,absorption maximum,in CCOC(C)=O,342 nm
same,absorption maximum,in CO,354 nm
CCN(CC)c1ccc2c(c1)oc(=O)c1c(=O)oc3cc([N+](=O)[O-])ccc3c12,absorption maximum,in CS(C)=O,498 nm
same,absorption maximum,in ClCCl,494 nm
Brc1cnc(-c2ccc(N(c3ccccc3)c3ccccc3)cc2)s1,absorption maximum,in CO,369 nm
CC1=C(C2=C(C)C(C)=[N+]3C2=Cc2cc(C)c(C)n2[B-]3(F)F)C2=Cc3cc(C)c(C)n3[B-](F)(F)[N+]2=C1C,absorption maximum,in ClCCl,557 nm
COC(=O)c1c(C(=O)OC)c2ccc(-c3ccccc3)nn2c1C,absorption maximum,in C1CCCCC1,397.6 nm
CCCCCCc1cc2c(s1)-c1cc3c(cc1NB2c1ccccc1)-c1sc(CCCCCC)cc1B(c1ccccc1)N3,absorption maximum,in ClCCl,412 nm
CC(C)c1cc(N(C)C)c(C#N)c2c1-c1cccc3cccc-2c13,absorption maximum,in O,430 nm
O=C1CC(=O)Nc2cc(C(=O)O)ccc2N1,absorption maximum,in CS(C)=O,304 nm
CN(C)c1ccc(/C=C/c2nc(/C=C/c3ccc(N(c4ccccc4)c4ccccc4)cc3)cc(/C=C/c3ccc(N(c4ccccc4)c4ccccc4)cc3)n2)cc1,absorption maximum,in ClCCl,409 nm
CC(C)[Si](C#Cc1c2cc3ccccc3cc2c(C#C[Si](C(C)C)(C(C)C)C(C)C)c2nc3c(nc12)C1c2ccccc2C3c2ccccc21)(C(C)C)C(C)C,absorption maximum,in CCCCCC,542 nm
CCCCCCCCCCCCn1nnc(-c2ccc(C#Cc3ccc(C#Cc4ccc(-c5nnn(CCCCCCCCCCCC)n5)cc4)c4nc5c6ccccc6c6ccccc6c5nc34)cc2)n1,absorption maximum,in C1CCOC1,428 nm
same,absorption maximum,in Cc1ccccc1,428 nm
same,absorption maximum,in ClCCl,428 nm
COC(=O)/C=C/C=C/C1=CC2=C(c3c(C)cc(C)cc3C)c3cc(/C=C/C=C/C(=O)OC)cn3[B-](F)(F)[N+]2=C1,absorption maximum,in ClCCl,633 nm
Cc1ccc(/C=C/c2ccccc2-[n+]2cc([O-])on2)cc1,absorption maximum,in C1CCCCC1,310 nm
same,absorption maximum,in CC#N,304 nm
O=C(c1ccc(N(c2ccccc2)c2ccccc2)cc1)[C@H]1[C@H](c2cccs2)C[C@](O)(c2ccccn2)C[C@]1(O)c1ccccn1,absorption maximum,in C1CCOC1,370 nm
same,absorption maximum,in CC#N,364 nm
same,absorption maximum,in CCO,368 nm
same,absorption maximum,in CCOC(C)=O,366 nm
same,absorption maximum,in CN(C)C=O,358 nm
same,absorption maximum,in ClCCl,374 nm
same,absorption maximum,in c1ccccc1,372 nm
CC1=C(Br)C(/C=C/c2ccncc2)=[N+]2C1=C(c1ccccc1)c1c(C)c(Br)c(/C=C/c3ccncc3)n1[B-]2(F)F,absorption maximum,in ClC(Cl)Cl,620 nm
CCN(CC)c1ccc(/C=N/C2CCCCC2/N=C/c2ccc(N(CC)CC)cc2O)c(O)c1 (stereo not drawn),absorption maximum,in CC#N,376 nm
same,absorption maximum,in CN(C)C=O,410 nm
same,absorption maximum,in ClCCl,403 nm
CC(O)CC1=N/C(=C\c2cccc(N(C)C)c2)C(=O)N1C (stereo not drawn),absorption maximum,in C1CCOC1,356 nm
same,absorption maximum,in CC#N,355 nm
same,absorption maximum,in CCCCCC,352 nm
CCN(CC)c1ccc(-c2nc(Oc3ccc(-c4nc5ccccc5s4)cc3)nc(Oc3ccc(-c4nc5ccccc5s4)cc3)n2)cc1,absorption maximum,in CN(C)C=O,374 nm
CC(C)[Si](C#Cc1c2nc3ccccc3nc2c(C#C[Si](C(C)C)(C(C)C)C(C)C)c2nc3c(ccc4cc5ccccc5cc43)nc12)(C(C)C)C(C)C,absorption maximum,in CCCCCC,638 nm
C(/C=C/c1cc2c3c(c1)CCCN3CCC2)=C\c1ccncc1,absorption maximum,in C1COCCO1,413 nm
same,absorption maximum,in CC#N,413 nm
same,absorption maximum,in CCCCCCC,403 nm
same,absorption maximum,in CO,419 nm
O=C(O)CCCCCn1/c(=C/C=C/C2=[N+](CCCCCC(=O)O)c3cccc4cccc2c34)c2cccc3cccc1c32,absorption maximum,in CO,760 nm
Cc1cc(-c2ccc(-c3nc4ccccc4[nH]3)cc2)ccc1-c1ccc(-c2nc3ccccc3[nH]2)cc1,absorption maximum,in CN(C)C=O,330 nm
CNc1ncc2nc(C#N)n(Cc3ccccc3)c2n1,absorption maximum,in C1COCCO1,342 nm
same,absorption maximum,in CC#N,342 nm
same,absorption maximum,in CO,342 nm
same,absorption maximum,in ClCCl,341 nm
COc1ccc(C2=C(c3ccc(OC)cc3)C(C)(C)c3cc(OC)ccc32)cc1,absorption maximum,in C1CCCCC1,296 nm
CC1(C)CC(NCc2ccc3ccc4cccc5ccc2c3c45)CC(C)(C)N1[O],absorption maximum,in C1CCCCC1,342 nm
same,absorption maximum,in CC#N,341 nm
same,absorption maximum,in CO,340 nm
same,absorption maximum,in ClC(Cl)Cl,344 nm
Nc1ccc2nc(-c3ccccc3)c(=O)oc2c1,absorption maximum,in c1ccccc1,402 nm
